Assay results published in ChEMBL document CHEMBL1629667, “Activities of dalbavancin against a worldwide collection of 81,673 gram-positive bacterial isolates” (2009).
In brackets after ≈: the same amount, converted by molar mass.

What was measured:
Type in all cases: functional
[1] = test system: Enterococcus faecium; test: Antimicrobial activity against Vancomycin-nonsusceptible Enterococcus faecium assessed as percent susceptible isolate by broth microdilution method
[2] = test system: Enterococcus faecalis; test: Antimicrobial activity against Vancomycin-susceptible Enterococcus faecalis assessed as percent susceptible isolate by broth microdilution method
[3] = test system: Enterococcus faecalis; test: Antimicrobial activity against Vancomycin-nonsusceptible Enterococcus faecalis assessed as percent resistant isolates by broth microdilution method
[4] = test system: Enterococcus faecium; test: Antimicrobial activity against Vancomycin-nonsusceptible Enterococcus faecium by broth microdilution method
[5] = test system: Enterococcus faecium; test: Antimicrobial activity against Vancomycin-susceptible Enterococcus faecium assessed as percent susceptible isolate by broth microdilution method
[6] = test system: Enterococcus faecalis; test: Antimicrobial activity against Vancomycin-susceptible Enterococcus faecalis assessed as percent resistant isolates by broth microdilution method
[7] = test system: Enterococcus faecium; test: Antimicrobial activity against Vancomycin-susceptible Enterococcus faecium by broth microdilution method
[8] = test system: Enterococcus faecium; test: Antimicrobial activity against Vancomycin-susceptible Enterococcus faecium assessed as percent resistant isolates by broth microdilution method
[9] = test system: Enterococcus faecium; test: Antimicrobial activity against Vancomycin-nonsusceptible Enterococcus faecium assessed as percent resistant isolates by broth microdilution method
[10] = test system: Enterococcus faecalis; test: Antimicrobial activity against Vancomycin-nonsusceptible Enterococcus faecalis assessed as percent susceptible isolate by broth microdilution method
[11] = test system: Enterococcus faecalis; test: Antimicrobial activity against Vancomycin-nonsusceptible Enterococcus faecalis by broth microdilution method
[12] = test system: Enterococcus faecalis; test: Antimicrobial activity against Vancomycin-susceptible Enterococcus faecalis by broth microdilution method
[13] = test system: Staphylococcus; test: Antimicrobial activity against Oxacillin-susceptible coagulase-negative Staphylococcus by broth microdilution method
[14] = test system: Staphylococcus; test: Antimicrobial activity against Oxacillin-resistant coagulase-negative Staphylococcus by broth microdilution method
[15] = test system: Staphylococcus; test: Antimicrobial activity against Oxacillin-resistant coagulase-negative Staphylococcus assessed as percent susceptible isolate by broth microdilution method
[16] = test system: Staphylococcus aureus; test: Antimicrobial activity against Oxacillin-susceptible Staphylococcus aureus assessed as percent susceptible isolate by broth microdilution method
[17] = test system: Streptococcus; test: Antimicrobial activity against Beta-hemolytic Streptococcus assessed as percent susceptible isolate by broth microdilution method
[18] = test system: Streptococcus; test: Antimicrobial activity against viridans group Streptococcus by broth microdilution method
[19] = test system: Staphylococcus aureus; test: Antimicrobial activity against Oxacillin-resistant Staphylococcus aureus assessed as percent resistant isolate by broth microdilution method
[20] = test system: Staphylococcus aureus; test: Antimicrobial activity against Oxacillin-susceptible Staphylococcus aureus by broth microdilution method
[21] = test system: Streptococcus; test: Antimicrobial activity against Beta-hemolytic Streptococcus by broth microdilution method
[22] = test system: Streptococcus; test: Antimicrobial activity against viridans group Streptococcus assessed as percent susceptible isolate by broth microdilution method
[23] = test system: Streptococcus; test: Antimicrobial activity against Beta-hemolytic Streptococcus assessed as percent resistant isolates by broth microdilution method
[24] = test system: Staphylococcus aureus; test: Antimicrobial activity against Oxacillin-resistant Staphylococcus aureus by broth microdilution method
[25] = test system: Staphylococcus; test: Antimicrobial activity against Oxacillin-susceptible coagulase-negative Staphylococcus assessed as percent susceptible isolate by broth microdilution method
[26] = test system: Staphylococcus aureus; test: Antimicrobial activity against Oxacillin-susceptible Staphylococcus aureus assessed as percent resistant isolates by broth microdilution method
[27] = test system: Staphylococcus; test: Antimicrobial activity against Oxacillin-resistant coagulase-negative Staphylococcus assessed as percent resistant isolate by broth microdilution method
[28] = test system: Staphylococcus; test: Antimicrobial activity against Oxacillin-susceptible coagulase-negative Staphylococcus assessed as percent resistant isolate by broth microdilution method
[29] = test system: Streptococcus; test: Antimicrobial activity against viridans group Streptococcus assessed as percent resistant isolates by broth microdilution method
[30] = test system: Staphylococcus aureus; test: Antimicrobial activity against Oxacillin-resistant Staphylococcus aureus assessed as percent susceptible isolate by broth microdilution method

`CC1(C)S[C@@H]2[C@H](NC(=O)[C@H](N)c3ccccc3)C(=O)N2[C@H]1C(=O)O` [AMPICILLIN] gave an Activity [1] of 0.8%, an Activity [2] of 99.6% and an Activity [3] of 4%. The MIC50 [4] was greater than 16 µg/mL, the MIC90 [4] was greater than 16 µg/mL and the Activity [5] was 15.6%. For the same compound, the Activity [6] was 0.2%, the MIC50 [7] was greater than 16 µg/mL and the MIC90 [7] was greater than 16 µg/mL. For the same compound, the Activity [8] was 84.4%, the Activity [9] was 99.2% and the Activity [10] was 96%. It also gave an MIC [11] of no more than 2 µg/mL, an MIC50 [11] of no more than 2 µg/mL and an MIC90 [11] of 4 µg/mL (≈ 11.4 µM). The MIC [12] was no more than 2 µg/mL, the MIC50 [12] was no more than 2 µg/mL and the MIC90 [12] was no more than 2 µg/mL.
In the case of `CC(=O)NC[C@H]1CN(c2ccc(N3CCOCC3)c(F)c2)C(=O)O1` [LINEZOLID], the Activity [1] was 97.6%, the MIC50 [13] was 1 µg/mL (≈ 2.96 µM) and the MIC90 [13] was 1 µg/mL (≈ 2.96 µM). For the same compound, the Activity [2] was 99.8%, the MIC50 [14] was 1 µg/mL (≈ 2.96 µM) and the MIC90 [14] was 1 µg/mL (≈ 2.96 µM). For the same compound, the Activity [15] was 99.5%, the Activity [3] was 1.4% and the Activity [16] was 100%. It also gave an Activity [17] of 100%, an MIC50 [4] of 1 µg/mL (≈ 2.96 µM) and an MIC90 [4] of 2 µg/mL (≈ 5.93 µM). For the same compound, the Activity [5] was 99.6%, the MIC50 [18] was 1 µg/mL (≈ 2.96 µM) and the MIC90 [18] was 1 µg/mL (≈ 2.96 µM). It also gave an Activity [6] of 0.1%, an Activity [19] of 0.04% and an MIC50 [20] of 2 µg/mL (≈ 5.93 µM). For the same compound, the MIC90 [20] was 2 µg/mL (≈ 5.93 µM), the MIC50 [21] was 1 µg/mL (≈ 2.96 µM) and the MIC90 [21] was 1 µg/mL (≈ 2.96 µM). It also gave an Activity [22] of 99.9%, an MIC50 [7] of 1 µg/mL (≈ 2.96 µM) and an MIC90 [7] of 2 µg/mL (≈ 5.93 µM). For the same compound, the Activity [8] was 0.3%, the Activity [9] was 1.8% and the Activity [10] was 98.6%. It also gave an MIC50 [11] of 1 µg/mL (≈ 2.96 µM), an MIC90 [11] of 2 µg/mL (≈ 5.93 µM) and an MIC50 [12] of 1 µg/mL (≈ 2.96 µM). The MIC90 [12] was 2 µg/mL (≈ 5.93 µM), the Activity [23] was 1.3% and the MIC50 [24] was 1 µg/mL (≈ 2.96 µM). For the same compound, the MIC90 [24] was 2 µg/mL (≈ 5.93 µM) and the Activity [25] was 99.9%.
Work on `C[C@H]1COc2c(N3CCN(C)CC3)c(F)cc3c(=O)c(C(=O)O)cn1c23.C[C@H]1COc2c(N3CCN(C)CC3)c(F)cc3c(=O)c(C(=O)O)cn1c23.O` [LEVOFLOXACIN] yielded an MIC [13] of no more than 0.5 µg/mL, an MIC50 [13] of no more than 0.5 µg/mL and an MIC90 [13] of 4 µg/mL. The MIC50 [14] was 4 µg/mL, the MIC90 [14] was greater than 4 µg/mL and the Activity [26] was 6.7%. For the same compound, the Activity [15] was 31.8%, the Activity [16] was 92.8% and the Activity [17] was 98.6%. It also gave an MIC50 [18] of 1 µg/mL, an MIC90 [18] of 2 µg/mL and an Activity [27] of 61.4%. It also gave an Activity [19] of 80.1%, an MIC [20] of no more than 0.5 µg/mL and an MIC50 [20] of no more than 0.5 µg/mL. It also gave an MIC90 [20] of no more than 0.5 µg/mL, an MIC [21] of 0.5 µg/mL and an MIC50 [21] of 0.5 µg/mL. The MIC90 [21] was 1 µg/mL, the Activity [22] was 95.7% and the Activity [28] was 11.1%. The Activity [23] was 8.2%, the Activity [29] was 3.6% and the MIC50 [24] was greater than 4 µg/mL. The MIC90 [24] was greater than 4 µg/mL, the Activity [25] was 87.5% and the Activity [30] was 18.3%.
`CCC[C@@H]1C[C@@H](C(=O)N[C@@H]([C@H]2O[C@H](SC)[C@H](O)[C@@H](O)[C@H]2O)[C@H](C)Cl)N(C)C1` [CLINDAMYCIN] showed an MIC [13] of no more than 0.25 µg/mL, an MIC50 [13] of no more than 0.25 µg/mL and an MIC90 [13] of no more than 0.25 µg/mL. For the same compound, the MIC90 [14] was greater than 2 µg/mL, the Activity [26] was 4% and the Activity [15] was 57%. For the same compound, the Activity [16] was 95.8%, the Activity [17] was 91.4% and the MIC [18] was 0.25 µg/mL (≈ 0.588 µM). It also gave an MIC50 [18] of 0.25 µg/mL (≈ 0.588 µM), an MIC90 [18] of 0.5 µg/mL (≈ 1.18 µM) and an Activity [27] of 41.7%. It also gave an Activity [19] of 52.1%, an MIC [20] of no more than 0.25 µg/mL and an MIC50 [20] of no more than 0.25 µg/mL. For the same compound, the MIC90 [20] was no more than 0.25 µg/mL, the MIC [21] was 0.25 µg/mL (≈ 0.588 µM) and the MIC50 [21] was 0.25 µg/mL (≈ 0.588 µM). It also gave an MIC90 [21] of 0.25 µg/mL (≈ 0.588 µM), an Activity [22] of 89.8% and an Activity [28] of 5.7%. For the same compound, the Activity [23] was 19.9%, the Activity [29] was 9.5% and the MIC50 [24] was greater than 2 µg/mL. It also gave an MIC90 [24] greater than 2 µg/mL, an Activity [25] of 93.5% and an Activity [30] of 47.8%.
Work on `CC1(C)S[C@@H]2[C@H](NC(=O)Cc3ccccc3)C(=O)N2[C@H]1C(=O)O` [PENICILLIN G] yielded an Activity [17] of 99.9%, an MIC50 [18] of 0.06 µg/mL (≈ 0.179 µM) and an MIC90 [18] of 1 µg/mL (≈ 2.99 µM). The MIC [21] was 0.015 µg/mL (≈ 0.0449 µM), the MIC50 [21] was 0.015 µg/mL (≈ 0.0449 µM) and the MIC90 [21] was 0.06 µg/mL (≈ 0.179 µM). The Activity [22] was 71.7% and the Activity [29] was 6%.
Compound `O=C(O)c1cn(C2CC2)c2cc(N3CCNCC3)c(F)cc2c1=O` [CIPROFLOXACIN] has an Activity [1] of 0.7%, an Activity [2] of 62.2% and an Activity [3] of 96.3%. It also gave an MIC50 [4] greater than 4 µg/mL, an MIC90 [4] greater than 4 µg/mL and an Activity [5] of 8.1%. It also gave an Activity [6] of 33.6%, an MIC50 [7] greater than 4 µg/mL and an MIC90 [7] greater than 4 µg/mL. For the same compound, the Activity [8] was 83.7%, the Activity [10] was 3.7% and the MIC50 [11] was greater than 4 µg/mL. It also gave an MIC90 [11] greater than 4 µg/mL, an MIC50 [12] of 1 µg/mL (≈ 3.02 µM) and an MIC90 [12] greater than 4 µg/mL.
